Results published in ChEMBL document CHEMBL4627246, “Pyroglutamide-Based P2X7 Receptor Antagonists Targeting Inflammatory Bowel Disease” (J Med Chem, 2020).

How the values were obtained:
Type in all cases: cell-based
SR = test: Cytotoxicity against human SR cells assessed as effect on cell growth at 10 uM incubated for 48 hrs by sulforhodamine B assay
HOP-92 = test: Cytotoxicity against human HOP92 cells assessed as effect on cell growth at 10 uM incubated for 48 hrs by sulforhodamine B assay; conditions: hop-92, 48 h
NCI-H226 = test: Cytotoxicity against human NCI-H226 cells assessed as effect on cell growth at 10 uM incubated for 48 hrs by sulforhodamine B assay; conditions: nci-h226, 48 h
NCI-H23 = test: Cytotoxicity against human NCI-H23 cells assessed as effect on cell growth at 10 uM incubated for 48 hrs by sulforhodamine B assay; conditions: nci-h23, 48 h
NCI-H322M = test: Cytotoxicity against human NCI-H322M cells assessed as effect on cell growth at 10 uM incubated for 48 hrs by sulforhodamine B assay
NCI-H460 = test: Cytotoxicity against human NCI-H460 cells assessed as effect on cell growth at 10 uM incubated for 48 hrs by sulforhodamine B assay; conditions: nci-h460, 48 h
COLO 205 = test: Cytotoxicity against human COLO205 cells assessed as effect on cell growth at 10 uM incubated for 48 hrs by sulforhodamine B assay; conditions: colo 205, 48 h
KM12 = test: Cytotoxicity against human KM12 cells assessed as effect on cell growth at 10 uM incubated for 48 hrs by sulforhodamine B assay; conditions: km12, 48 h
SF-295 = test: Cytotoxicity against human SF295 cells assessed as effect on cell growth at 10 uM incubated for 48 hrs by sulforhodamine B assay; conditions: sf-295, 48 h
U-251 = test: Cytotoxicity against human U251 cells assessed as effect on cell growth at 10 uM incubated for 48 hrs by sulforhodamine B assay; conditions: u-251, 48 h
Malme-3M = test: Cytotoxicity against human MALME-3M cells assessed as effect on cell growth at 10 uM incubated for 48 hrs by sulforhodamine B assay
M14 = test: Cytotoxicity against human M14 cells assessed as effect on cell growth at 10 uM incubated for 48 hrs by sulforhodamine B assay; conditions: m14, 48 h
MDA-MB-435 = test: Cytotoxicity against human MDA-MB-435 cells assessed as effect on cell growth at 10 uM incubated for 48 hrs by sulforhodamine B assay; conditions: mda-mb-435, 48 h
OVCAR-8 = test: Cytotoxicity against human OVCAR8 cells assessed as effect on cell growth at 10 uM incubated for 48 hrs by sulforhodamine B assay; conditions: ovcar-8, 48 h
CAKI-1 = test: Growth inhibition of human Caki1 cells assessed as growth percentage at 10 uM incubated for 48 hrs by sulforhodamine B assay; conditions: caki-1, 48 h
TK-10 = test: Cytotoxicity against human TK10 cells assessed as effect on cell growth at 10 uM incubated for 48 hrs by sulforhodamine B assay; conditions: tk-10, 48 h
PC-3 = test: Cytotoxicity against human PC3 cells assessed as effect on cell growth at 10 uM incubated for 48 hrs by sulforhodamine B assay; conditions: pc-3, 48 h
Hs-578T = test: Cytotoxicity against human Hs 578T cells assessed as effect on cell growth at 10 uM incubated for 48 hrs by sulforhodamine B assay
BT-549 = test: Cytotoxicity against human BT549 cells assessed as effect on cell growth at 10 uM incubated for 48 hrs by sulforhodamine B assay; conditions: bt-549, 48 h
MDA-MB-468 = test: Cytotoxicity against human MDA-MB-468 cells assessed as effect on cell growth at 10 uM incubated for 48 hrs by sulforhodamine B assay; conditions: mda-mb-468, 48 h

Measured: Activity

CN1C(=O)CC[C@H]1C(=O)NCc1cc(C(F)(F)F)ccc1Cl
Non-Toxic: all assays above

COc1cc(CN/C=C2\C[C@@H](C(=O)NCc3ccc(Cl)cc3Cl)NC2=O)cc(OC)c1OC
Non-Toxic: all assays above

CN(C)/C=C1\C[C@@H](C(=O)NCc2ccc(Cl)cc2Cl)N(c2cccs2)C1=O
Non-Toxic: all assays above

O=C(NCc1ccc(Cl)cc1Cl)[C@@H]1CCC(=O)N1Cc1ccc(Cl)cc1
Non-Toxic: all assays above

COc1ccccc1CN1C(=O)[C@@H]2C/C(=C\N(C)C)C(=O)N2C1N(C)C (stereo not given in full)
Non-Toxic: all assays above

CN(Cc1ccccc1)C(=O)[C@@H]1CCC(=O)N1Cc1ccc(Cl)cc1Cl
Non-Toxic: all assays above

COc1ccc(N2C(=O)CC[C@H]2C(=O)NCc2ccc(Cl)cc2Cl)cc1
Non-Toxic: all assays above

O=C(NCc1ccc(Cl)cc1Cl)[C@@H]1CCC(=O)N1C(c1ccc(Cl)cc1)c1ccc(Cl)cc1
Non-Toxic: all assays above

O=C(NCc1ccccc1Cl)[C@@H]1CCC(=O)N1Cc1ccccc1
Non-Toxic: all assays above

O=C(NCc1ccc(Cl)cc1Cl)[C@@H]1COC(=O)N1c1cccs1
Non-Toxic: all assays above

COc1ccc(CN2C(=O)[C@@H]3C/C(=C\N(C)C)C(=O)N3C2N(C)C)c(OC)c1 (stereo not given in full)
Non-Toxic: all assays above

COc1ccc(N2C(=O)[C@@H]3C/C(=C\N(C)C)C(=O)N3C2N(C)C)cc1 (stereo not given in full)
Non-Toxic: all assays above

O=C(NCc1ccccc1)[C@@H]1CCC(=O)N1Cc1ccc(Cl)cc1Cl
Non-Toxic: all assays above

Cc1ccc(NC(=O)[C@@H]2CCC(=O)N2c2ccccc2)cc1
Non-Toxic: all assays above
